Laboratory results as given in paper PMC5772236, “In Vitro Enzymatic Depolymerization of Lignin with Release of Syringyl, Guaiacyl, and Tricin Units” (Applied and Environmental Microbiology, 2018).

Tests used:
Format in all cases: biochemical
AvGR = molecular target: T1, AvGR (Allochromatium vinosum, UniProt D3RSV1); test: coupled assay with and without AvGR, HPLC of products; conditions: 25 mM Tris, 2% DMSO, pH 8.0; NADH formed in situ by LigD/LigN; GSSG co-substrate
T1 construct: gene Alvin_1323; recombinant, E. coli B834, codon optimized, pVP302K; N-terminal His tag cut by Tev protease
T1 sequence (D3RSV1 1-458): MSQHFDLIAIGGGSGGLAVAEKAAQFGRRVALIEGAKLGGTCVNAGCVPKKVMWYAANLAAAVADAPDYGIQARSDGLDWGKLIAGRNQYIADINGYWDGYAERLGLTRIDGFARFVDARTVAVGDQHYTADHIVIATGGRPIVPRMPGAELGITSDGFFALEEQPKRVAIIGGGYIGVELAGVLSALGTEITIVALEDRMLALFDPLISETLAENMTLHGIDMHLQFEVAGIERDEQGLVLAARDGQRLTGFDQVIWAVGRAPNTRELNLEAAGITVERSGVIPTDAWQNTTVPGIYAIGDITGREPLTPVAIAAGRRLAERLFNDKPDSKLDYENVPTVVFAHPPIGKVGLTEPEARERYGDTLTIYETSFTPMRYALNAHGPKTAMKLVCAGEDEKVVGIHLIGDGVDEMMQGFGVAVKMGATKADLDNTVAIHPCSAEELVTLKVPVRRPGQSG

LigG = molecular target: T2, LigG (Sphingomonas paucimobilis, UniProt Q9WXJ9); test: coupled assay, HPLC of products; conditions: 25 mM Tris, 2% DMSO, pH 8.0, GSH co-substrate; GS-HPV formed in situ by LigD/LigN/LigE/LigF; epimers not both completely cleaved
T2 construct: recombinant, E. coli, codon optimized; His tag cut by Tev protease (procedure cited)
T2 sequence (Q9WXJ9 1-265): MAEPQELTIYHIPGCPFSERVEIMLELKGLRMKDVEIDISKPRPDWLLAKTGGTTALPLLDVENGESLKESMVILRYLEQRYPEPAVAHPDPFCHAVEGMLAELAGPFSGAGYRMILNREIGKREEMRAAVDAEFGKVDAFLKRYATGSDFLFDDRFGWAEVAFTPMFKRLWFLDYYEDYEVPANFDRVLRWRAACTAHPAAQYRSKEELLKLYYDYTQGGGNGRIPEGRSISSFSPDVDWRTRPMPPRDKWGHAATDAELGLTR

NaGSTNU = molecular target: T3, NaGSTNU (Novosphingobium aromaticivorans, UniProt Q2G542); test: coupled assay with and without enzyme, HPLC of products; conditions: 25 mM Tris, 2% DMSO, pH 8.0, GSH co-substrate; GS-HPV formed in situ by LigD/LigN/LigE/LigF; both beta-epimers cleaved
T3 construct: gene Saro_2595; recombinant, E. coli B834; N-terminal His tag cut by Tev protease; cloned from genomic DNA
T3 sequence (Q2G542 1-288): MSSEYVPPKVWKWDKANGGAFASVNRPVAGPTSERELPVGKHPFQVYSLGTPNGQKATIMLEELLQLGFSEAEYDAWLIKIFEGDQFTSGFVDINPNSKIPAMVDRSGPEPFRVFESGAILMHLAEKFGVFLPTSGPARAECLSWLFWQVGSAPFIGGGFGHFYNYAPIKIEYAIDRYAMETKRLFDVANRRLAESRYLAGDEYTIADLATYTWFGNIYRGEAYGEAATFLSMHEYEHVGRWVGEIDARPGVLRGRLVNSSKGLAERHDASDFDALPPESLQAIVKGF

`NC(=O)C1=CN([C@@H]2O[C@H](COP(=O)(O)OP(=O)(O)OC[C@H]3O[C@@H](n4cnc5c(N)ncnc54)[C@H](O)[C@@H]3O)[C@@H](O)[C@H]2O)C=CC1` [NADH] was tested, and the “coupled assay with and without AvGR, HPLC of products” value (AvGR) was “the presence of AvGR is sufficient to recycle the cosubstrates NAD^+ and GSH”.
For `COc1cc(C(=O)C(CO)SC[C@H](NC(=O)CC[C@H](N)C(=O)O)C(=O)NCC(=O)O)ccc1O` (mixture of isomers) [GS-HPV, β-S-glutathionyl-γ-hydroxypropiovanillone], the “coupled assay, HPLC of products” value (LigG) was “LigG is not able to completely cleave both β-epimers of GS-HPV in vitro” and the “coupled assay with and without enzyme, HPLC of products” value (NaGSTNU) was “the absence of NaGSTNU prevented the conversion of GS-HPV to HPV”.
